According to publication PMC11695783 (Frontiers in Pharmacology, 2024):
“And” between values parts separate entries of the source, which are not always exact repeats. Identical values can stand only once.

Tests used:
[1] = test system: inflammatory cells in BALF (neutrophils, macrophages, lymphocytes); experiment: Inflammatory cell analysis in BALF of M. pneumoniae-infected mice; format: in vivo, BALB/c mice
Experimental: (§1) Adult BALB/c mice (20–22 g) were divided into a control group, a positive group, and compound 16C groups at low (20 mg/kg), medium (40 mg/kg), and high-dose (80 mg/kg) levels and oral and intramuscular tiamulin treatment groups (40 mg/kg). We formulated the above dose range based on the dose at which tiamulin was approved for injection (10–20 mg/kg) and the dose previously reported (45 mg/kg) ([EMA, 1999]; [Xiao et al., 2016]). In summary, we selected similar doses for compound 16C in vivo study. 40 mg/kg was used as an intermediate value, one-half of it as a low dose, and two times of it as a high dose. To prepare the challenge solution, logarithmic phase culture suspensions were centrifuged at 1700 g for 10 min, and the pellets were suspended in sterile PBS to obtain 1 × 10^9 CFU/mL. Before the challenge, mice were anesthetized with tribromoethanol (250 mg/kg, IP). Mice in the control groups were intratracheally inoculated with sterile PBS, whereas mice in the other groups were intratracheally challenged with 50 μL (1 × 10^9 CFU/mL) M. pneumoniae suspension once a day for 3 days. Compound 16C and tiamulin (tiamulin-IM group) dissolved using the method mentioned in pharmacokinetic studies, and the tiamulin fumarate soluble powder was dissolved in ddH2O for oral administration. After the final challenge, antibiotics were administered at low, medium, and high-dose levels (see above) at 10 a.m. and 10 p.m. daily for 4 consecutive days. Normal saline containing 5% DMSO and 5% Tween-80 was administered as control and positive groups by thigh intramuscular injection. To compare the efficacy of compound 16C and tiamulin under the same route of administration, we used the original tiamulin for intramuscular administration in the same formulation. On the other hand, tiamulin fumarate soluble powder, approved for oral administration to treat animal mycoplasma diseases in China, was administered to mice by gavage. Based on a clinical study of lefamulin in community-acquired bacterial pneumonia (CABP), subjects were administered twice a day and the 96 ± 24 h of starting treatment was an essential point for early clinical response (ECR) ([Paukner et al., 2022]). We therefore stopped treatment at 96 h and sampled at 192 h to explore whether the disease worsened after cessation of treatment. Bronchoalveolar lavage fluid (BALF) and lungs were collected at 0, 96, 192 h (Samples of 0 h were collected before starting treatment, and mice were fed ad libitum without drug treatment during 96–192 h) after the first dose, BALF for cytokine and cytological analysis and lung for histopathological evaluation.
(§2) Bronchoalveolar lavage was performed according to a standardized method ([Van Hoecke et al., 2017]). BALF was obtained following infusion of 0.5 mL PBS via tracheal cannulation into the lung twice (total 1 mL), and 200 µL was used for mycoplasma counts. The remaining BALF was centrifuged at 300 g for 10 min to separate the debris. The supernatants were stored at −80°C, and the debris was resuspended in the same volume of PBS containing red blood cell lysis buffer. A hemocytometer was used to count total cell numbers in BALF, and cell smears (Diff-Quik staining) were prepared to calculate the percentages of neutrophils, macrophages, and lymphocytes. IFN-γ, TNF-α, and CXCL1 levels in BALF samples were assessed using commercial ELISA kits using guidelines recommended by the manufacturer (Elabscience, Wuhan, China). Parallel data for each experimental group at each time point were obtained from six different mice.

Mycoplasma pneumoniae = experiment: In vivo pharmacodynamic study: Mycoplasma pneumoniae loads in BALF of infected mice; design: species or system BALB/c mice; details: for MPcounts in BALF (AV): group AV; for MPcounts in BALF: individual mice
Experimental: as §1, §2

[2] = compound 16C 20 mg/kg IM, 192 h
[3] = compound 16C 40 mg/kg IM, 192 h
[4] = compound 16C 80 mg/kg IM, 192 h

Compound: C=CC1(C)CC(OC(=O)CSc2ccc(NC(=O)Cc3ccc([N+](=O)[O-])cc3)cc2)C2(C)C(C)CCC3(CCC(=O)C32)C(C)C1O (stereo not drawn) [compound 16C, 22–((4-((4-nitrophenyl)acetamido)phenyl)thio)deoxypleuromutilin]
- cell counts, 淋 (lymphocytes) (AV) ([1]; 40mg/kg, time 0): 1.869 n*10^5
- cell counts, total (AV) ([1]; 40mg/kg, time 96): 7.083 n*10^5
- cell counts, 中 (neutrophils) (AV) ([1]; 40mg/kg, time 96): 2.373 n*10^5
- cell counts, 巨 (macrophages) (AV) ([1]; 40mg/kg, time 96): 2.398 n*10^5
- cell counts, 淋 (lymphocytes) (AV) ([1]; 40mg/kg, time 96): 2.312 n*10^5
- cell counts, total (AV) ([1]; 40mg/kg, time 192): 3.683 n*10^5
- cell counts, 中 (neutrophils) (AV) ([1]; 40mg/kg, time 192): 1.76 n*10^5
- cell counts, 巨 (macrophages) (AV) ([1]; 40mg/kg, time 192): 0.9141 n*10^5
- cell counts, 淋 (lymphocytes) (AV) ([1]; 40mg/kg, time 192): 1.009 n*10^5
- cell counts, total (AV) ([1]; 80mg/kg, time 0): 35.9167 n*10^5
- cell counts, 中 (neutrophils) (AV) ([1]; 80mg/kg, time 0): 31.0489 n*10^5
- cell counts, 巨 (macrophages) (AV) ([1]; 80mg/kg, time 0): 3.441 n*10^5
- cell counts, 淋 (lymphocytes) (AV) ([1]; 80mg/kg, time 0): 1.427 n*10^5
- cell counts, total (AV) ([1]; 80mg/kg, time 96): 2.675 n*10^5
- cell counts, 中 (neutrophils) (AV) ([1]; 80mg/kg, time 96): 0.2904 n*10^5
- cell counts, 巨 (macrophages) (AV) ([1]; 80mg/kg, time 96): 0.8707 n*10^5
- cell counts, 淋 (lymphocytes) (AV) ([1]; 80mg/kg, time 96): 1.514 n*10^5
- cell counts, total (AV) ([1]; 80mg/kg, time 192): 2.742 n*10^5
- cell counts, 中 (neutrophils) (AV) ([1]; 80mg/kg, time 192): 0.4795 n*10^5
- cell counts, 巨 (macrophages) (AV) ([1]; 80mg/kg, time 192): 1.166 n*10^5
- cell counts, 淋 (lymphocytes) (AV) ([1]; 80mg/kg, time 192): 1.096 n*10^5
- number of cells in BALF four days following treatment cessation ([1]; compound 16C 20, 40, and 80 mg/kg dose groups, 192 h, similar to control group (P> 0.05)): lower than that of the positive control
- total number of inflammatory cells in BALF compared with the positive controls ([1]; compound 16C low-dose (20 mg/kg IM), after 4 days of treatment (96 h)): not statistically significant
- microbial reduction in BALF (Mycoplasma pneumoniae; compound 16C 20 mg/kg IM twice daily 4 d, 96 h): 1.40 log10 CFU/mL
- MPcounts in BALF (AV) (Mycoplasma pneumoniae; compound 16C 20 mg/kg IM, 96 h): 4.601 Log10CFU/mL
- MPcounts in BALF (Mycoplasma pneumoniae; compound 16C 20 mg/kg IM, 96 h): 5.04 Log10CFU/mL and 4.682 Log10CFU/mL and 3.8451 Log10CFU/mL and 4.709 Log10CFU/mL and 4.293 Log10CFU/mL and 5.039 Log10CFU/mL
- MPcounts in BALF (AV) (Mycoplasma pneumoniae; [2]): 3.598 Log10CFU/mL
- MPcounts in BALF (Mycoplasma pneumoniae; [2]): 3.747 Log10CFU/mL and 3.757 Log10CFU/mL and 3.482 Log10CFU/mL and 3.599 Log10CFU/mL and 3.64 Log10CFU/mL and 3.366 Log10CFU/mL
- microbial reduction in BALF (Mycoplasma pneumoniae; compound 16C 40 mg/kg IM twice daily 4 d, 96 h): 2.02 log10 CFU/mL
- MPcounts in BALF (AV) (Mycoplasma pneumoniae; compound 16C 40 mg/kg IM, 96 h): 3.896 Log10CFU/mL
- MPcounts in BALF (Mycoplasma pneumoniae; compound 16C 40 mg/kg IM, 96 h): 4.213 Log10CFU/mL and 4.174 Log10CFU/mL and 3.6574 Log10CFU/mL and 4.285 Log10CFU/mL and 3.708 Log10CFU/mL and 3.341 Log10CFU/mL
- MPcounts in BALF (AV) (Mycoplasma pneumoniae; [3]): 3.662 Log10CFU/mL
- MPcounts in BALF (Mycoplasma pneumoniae; [3]): 3.675 Log10CFU/mL and 3.607 Log10CFU/mL and 3.633 Log10CFU/mL and 3.784 Log10CFU/mL and 3.322 Log10CFU/mL and 3.954 Log10CFU/mL
- microbial reduction in BALF (Mycoplasma pneumoniae; compound 16C 80 mg/kg IM twice daily 4 d, 96 h): 2.68 log10 CFU/mL
- microbial reduction in BALF (Mycoplasma pneumoniae; compound 16C 80 mg/kg IM twice daily 4 d, 192 h): 2.65 log10 CFU/mL
- MPcounts in BALF (AV) (Mycoplasma pneumoniae; compound 16C 80 mg/kg IM, 96 h): 3.141 Log10CFU/mL
- MPcounts in BALF (Mycoplasma pneumoniae; compound 16C 80 mg/kg IM, 96 h): 3.314 Log10CFU/mL and 3.255 Log10CFU/mL and 3.244 Log10CFU/mL and 3.15 Log10CFU/mL and 2.656 Log10CFU/mL and 3.223 Log10CFU/mL
- MPcounts in BALF (AV) (Mycoplasma pneumoniae; [4]): 3.173 Log10CFU/mL
- MPcounts in BALF (Mycoplasma pneumoniae; [4]): 3.05 Log10CFU/mL and 3.185 Log10CFU/mL and 3.04 Log10CFU/mL and 3.438 Log10CFU/mL and 3.295 Log10CFU/mL and 3.0308 Log10CFU/mL
